Values joined by “and” are separate entries in the source; they are usually repeats but may differ in a detail not shown here. Equal values may be shown once.
Legend:
[1] = LC/MS-MS tissue concentration 48 h after 75 mg kg-1 ip; format: in vivo; conditions: mouse, MDA-MB-468 tumor, intraperitoneal, 75 mg kg^−1, 48 h post 75mg/kg ip, mouse 1-4; read-out: [PU-HZ151] MDA-MB-468 TUMOR
[2] = test system: MDA-MB-468 tumor and organs; test: as above; format: in vivo; conditions: 48 h post 75mg/kg ip, mouse 1-4; listed as PU-HZ151
GBM#5 = test: Survival studies in mice; format: in vivo, mouse; conditions: 50 mg kg^−1 iv, three times per week, n=7
Source text: (§1) Survival of the animals was followed until the mice became morbid (physical and/or neurological symptoms), at which point, the animals were killed. Typically, mice became symptomatic several weeks to a few months after GSC implantation. Log-rank tests were used to compare the distribution of time to killing across groups and Kaplan–Meier curves were produced.

GBM#7 = test: Survival studies in mice; format: in vivo, mouse; conditions: 50 mg kg^−1 iv, three times per week, n=7
Source text: as §1

GBM#8 = test: Survival studies in mice; format: in vivo, mouse; conditions: 50 mg kg^−1 iv, three times per week, n=7
Source text: as §1

CYP2B6 = molecular target: T1, CYP2B6 (Homo sapiens, UniProt P20813); test: Cytochrome P450 profiling, orphenadrine; format: in vitro ADME; conditions: for % PU-HZ151 remaining: Orphenadrine
T1 construct: tissue Life Technologies HMMCPL; host or cells: human liver microsomes
T1 sequence (P20813 1-491): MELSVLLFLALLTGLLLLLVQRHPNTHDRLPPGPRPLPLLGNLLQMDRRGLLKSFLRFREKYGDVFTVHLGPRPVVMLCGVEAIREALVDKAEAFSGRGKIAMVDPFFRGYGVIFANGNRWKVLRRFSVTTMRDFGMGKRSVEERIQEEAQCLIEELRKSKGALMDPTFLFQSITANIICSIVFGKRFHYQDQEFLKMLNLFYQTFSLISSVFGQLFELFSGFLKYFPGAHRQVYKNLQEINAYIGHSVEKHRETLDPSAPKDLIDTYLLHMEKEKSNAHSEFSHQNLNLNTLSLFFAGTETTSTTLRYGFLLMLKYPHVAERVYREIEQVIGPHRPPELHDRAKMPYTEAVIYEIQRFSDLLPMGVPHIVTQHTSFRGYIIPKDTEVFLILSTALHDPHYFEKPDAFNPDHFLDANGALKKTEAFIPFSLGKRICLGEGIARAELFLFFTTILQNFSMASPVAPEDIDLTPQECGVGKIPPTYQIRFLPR
Method: (§2) To identify cytochrome P450 enzymes responsible for PU-HZ151’s metabolism in human liver microsomes the following procedure was followed. Phosphate buffer (100 mM, pH 7.4) was prepared monthly and stored at 4 °C. Frozen stock solutions of human liver microsomes (Life Technologies; Cat# HMMCPL) were used once after thawing and were not refrozen. NADPH stock solution (50 mM) in distilled water was prepared fresh daily. […] The stock solutions of these P450 inhibitors were prepared in DMSO. […] The concentration of the chemical inhibitors used in the assay were furafylline (10 μM), tranylcypromine (2 μM), ketoconazole (1 μM), troleandomycin (20 μM), orphenadrine (50 μM), montelukast (3 μM), sulfaphenazole (10 μM), benzylnirvanol (1 μM), quinidine (1 μM), and 1-aminobenzotriazole (1 mM) for all the P450 enzymes. Timing of the reactions was started following the addition of NADPH/magnesium chloride mix and PU-HZ151. Time-dependent chemical inhibitors (furafylline, troleandomycin, orphenadrine, and 1-aminobenzotriazole) were preincubated with human microsomes in the presence of NADPH and magnesium chloride for 15 min before the addition of PU-HZ151 and timing of reactions was started after addition of PU-HZ151. […] Following brief vortexing and centrifugation, a 200 µL aliquot of the supernatant was transferred to a tube, and 10 µL of haloperidol (1 µg mL^−1) as internal standard was added. Following brief vortexing and centrifugation, 50 µL of supernatant was added to a 96-well plate for subsequent LC-MS/MS analysis. PU-HZ151 was similarly tested as above in the absence of CYP inhibitors for comparative purposes. All samples were assayed in duplicate. […] This was similarly performed for incubations of PU-HZ151 performed in the absence of CYP inhibitor.

CYP2C8 = molecular target: T2, CYP2C8 (Homo sapiens, UniProt P10632); test: Cytochrome P450 profiling, montelukast; format: in vitro ADME; conditions: for % PU-HZ151 remaining: Montelukast
T2 construct: tissue Life Technologies HMMCPL; host or cells: human liver microsomes
T2 sequence (P10632 1-490): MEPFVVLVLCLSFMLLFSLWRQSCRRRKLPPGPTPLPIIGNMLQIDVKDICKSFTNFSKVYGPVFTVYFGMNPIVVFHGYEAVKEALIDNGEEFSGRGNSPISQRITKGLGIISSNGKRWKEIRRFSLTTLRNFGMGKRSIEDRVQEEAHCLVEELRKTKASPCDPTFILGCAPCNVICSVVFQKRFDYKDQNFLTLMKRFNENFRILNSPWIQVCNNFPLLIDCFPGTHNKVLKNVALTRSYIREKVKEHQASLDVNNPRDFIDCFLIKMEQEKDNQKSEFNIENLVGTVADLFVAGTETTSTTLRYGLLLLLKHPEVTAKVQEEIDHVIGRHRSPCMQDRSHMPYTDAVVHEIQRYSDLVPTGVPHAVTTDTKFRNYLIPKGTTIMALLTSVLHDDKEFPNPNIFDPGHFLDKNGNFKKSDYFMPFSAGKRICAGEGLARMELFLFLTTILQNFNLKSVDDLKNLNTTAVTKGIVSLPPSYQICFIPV
Method: as §2

CC(C)(C)CNCCn1c(Sc2cc3c(cc2I)OCO3)nc2c(N)ncnc21 [Compound 85]
concentration at 48 h [1]: 1670 nM
[PU-HZ151] Liver [2]: 0.002 µM
[PU-HZ151] MDA-MB-468 TUMOR [2]: 1.786 µM and 1.509 µM and 1.067 µM
survival vs vehicle, log-rank P (GBM#5): 0.86
survival vs vehicle, log-rank P (GBM#7): 0.0061
survival vs vehicle, log-rank P (GBM#8): 0.21
% PU-HZ151 remaining (CYP2B6; 15 min): 62%
% PU-HZ151 remaining (CYP2B6; 30 min): 42.7%
% PU-HZ151 remaining (CYP2B6; 60 min): 25.6%
inhibition of PU-HZ151 metabolism (CYP2B6; orphenadrine): 10%
% PU-HZ151 remaining (CYP2C8; 15 min): 59.7%
% PU-HZ151 remaining (CYP2C8; 30 min): 42.1%
% PU-HZ151 remaining (CYP2C8; 60 min): 22.4%
inhibition of PU-HZ151 metabolism (CYP2C8; montelukast): 6%
